Test results as given in patent US10363239B2, “Method for inhibiting growth of cancer cells” (Pain Therapeutics, Inc., priority 2013, dated 2019).
Where two headings read alike, the source gives them in different places.

Key:
mu opiate receptor (MOR) = assay: MOR agonist activity using [35S]GTPγS binding assay in striatal membranes; type: biochemical; conditions: for MOR agonist activity ([35S]GTPγS binding), FLNA-Binding Compound as Agonist 1 μM + BFNA: 1 μM compound + 1 μM β-funaltrexamine
Method in brief: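 Striatal membranes (200 μg) were preincubated 5 min at 30 °C in HEPES pH 7.5 with 100 mM NaCl, 1 mM MgCl2 and 0.5 nM [35S]GTPγS, then 5 min more with 0.1–10 μM compound. Gαo was immunoprecipitated and bound radioactivity counted by scintillation.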

[1] = biological target: FLNA pentapeptide of SEQ ID NO: 1 (Bn-VAKGL) (Homo sapiens, UniProt P21333); assay: FITC-NLX-based FLNA screening assay (inhibition of FITC-naloxone binding to Bn-VAKGL on streptavidin plates); conditions: 10 nM FITC-NLX
[2] = 0.1 μM compound relative to DAMGO
[3] = 1 μM compound + BFNA relative to DAMGO + BFNA
[4] = 1 μM compound relative to DAMGO
[5] = read-out: Percent Binding Inhibition, FLNA-binding compound 0.01 μM
[6] = read-out: Percent Binding Inhibition, FLNA-binding compound 0.1 μM
[7] = read-out: Percent Binding Inhibition, FLNA-binding compound 1 μM
[8] = Series C-1, 0.1 μM compound, relative to DAMGO
[9] = Series C-1, 0.1 μM compound, [35S]GTPγS binding to Gαo, striatal membranes
[10] = Series C-1, 1 μM compound + 1 μM β-FNA
[11] = Series C-1, 1 μM compound + β-FNA, relative to DAMGO + BFNA
[12] = Series C-1, 1 μM compound, relative to DAMGO
[13] = Series C-1, 1 μM compound, [35S]GTPγS binding to Gαo, striatal membranes
[14] = FLNA-binding compound 0.01 μM, read-out: Percent Binding Inhibition
[15] = FLNA-binding compound 0.1 μM, read-out: Percent Binding Inhibition
[16] = FLNA-binding compound 1 μM, read-out: Percent Binding Inhibition
[17] = Series C-2, 0.1 μM compound, relative to DAMGO
[18] = Series C-2, 0.1 μM compound, [35S]GTPγS binding to Gαo, striatal membranes
[19] = Series C-2, 1 μM compound + 1 μM β-FNA
[20] = Series C-2, 1 μM compound + β-FNA, relative to DAMGO + BFNA
[21] = Series C-2, 1 μM compound, relative to DAMGO
[22] = Series C-2, 1 μM compound, [35S]GTPγS binding to Gαo, striatal membranes

| Compound | MOR agonist activity ([35S]GTPγS binding), FLNA-Binding Compound as Agonist 0.1 μM (mu opiate receptor (MOR); 0.1 μM compound) | % DAMGO (0.1 μM) (mu opiate receptor (MOR); [2]) | MOR agonist activity ([35S]GTPγS binding), FLNA-Binding Compound as Agonist 1 μM (mu opiate receptor (MOR); 1 μM compound) | MOR agonist activity ([35S]GTPγS binding), FLNA-Binding Compound as Agonist 1 μM + BFNA (mu opiate receptor (MOR)) | % DAMGO + BFNA (mu opiate receptor (MOR); [3]) | % DAMGO (1 μM) (mu opiate receptor (MOR); [4]) | inhibition at 0.01 µM [1, 14] | inhibition at 0.1 µM [1, 15] | inhibition at 1 µM [1, 16] | % DAMGO (0.1 μM) (mu opiate receptor (MOR); [17]) | MOR agonist activity, percent [35S]GTPγS binding at the stated compound concentration (mu opiate receptor (MOR); [18]) | MOR agonist activity, percent [35S]GTPγS binding at the stated compound concentration (mu opiate receptor (MOR); [19]) | % DAMGO + BFNA (mu opiate receptor (MOR); [20]) | % DAMGO (1 μM) (mu opiate receptor (MOR); [21]) | MOR agonist activity, percent [35S]GTPγS binding at the stated compound concentration (mu opiate receptor (MOR); [22]) | also measured |
| --- | --- | --- | --- | --- | --- | --- | --- | --- | --- | --- | --- | --- | --- | --- | --- | --- |
| CC1CCC(C(C)C)C(OCC(O)CN2CCc3ccccc32)C1 (stereo not drawn) [Compound A0065] | 197.6% | 126.6% | 266.8% | 44.9% | 112.5% | 115.7% | – | – | – | – | – | – | – | – | – | Percent Binding Inhibition ([1]; FLNA-binding compound 0.01 μM): 38.7%; Percent Binding Inhibition ([1]; FLNA-binding compound 0.1 μM): 50.0%; Percent Binding Inhibition ([1]; FLNA-binding compound 1 μM): 50.8% |
| CC1CCC(C(C)C)C(OCC(O)CN2CCCc3ccccc32)C1 (stereo not drawn) [Compound A0068] | 73.9% | 36.8% | 110.4% | 98.1% | 182.0% | 35.2% | – | – | – | – | – | – | – | – | – | inhibition at 0.01 µM [1, 5]: 51.9%; inhibition at 0.1 µM [1, 6]: 54.2%; inhibition at 1 µM [1, 7]: 58.3% |
| O=C(O)c1ccc(C(=O)N2CCC3(CC2)OCCN3S(=O)(=O)c2ccc(C(=O)O)cc2)cc1 [Compound C0021] | – | – | – | – | – | – | 34% | 38.4% | 40.6% | – | – | – | – | – | – | % DAMGO (0.1 μM) (mu opiate receptor (MOR); [8]): 94.5%; Concentration of FLNA-Binding Compound as Agonist 0.1 μM (mu opiate receptor (MOR); [9]): 159.7%; Concentration of FLNA-Binding Compound as Agonist 1 μM + BFNA (mu opiate receptor (MOR); [10]): 90.7%; % DAMGO + BFNA (mu opiate receptor (MOR); [11]): 546.4%; % DAMGO (1 μM) (mu opiate receptor (MOR); [12]): 87.8%; Concentration of FLNA-Binding Compound as Agonist 1 μM (mu opiate receptor (MOR); [13]): 192.0% |
| CN1CCC2(CC1)NC(=O)CN2Cc1ccccc1 [Compound C0104M] | – | – | – | – | – | – | 51.4% | 54.1% | 55.2% | 99.5% | 188.2% | 143.8% | 296.5% | 96.3% | 238.9% | – |
| CC1CN(CC(O)COC2CCCCC2)CC(C)O1 (stereo not drawn) [Compound A0017] | 161.9% | 96.9% | 246.0% | 65.2% | 187.9% | 100.4% | 29.8% | 38.6% | 44% | – | – | – | – | – | – | – |
| CCOC(=O)CN1CCC2(CC1)OCCN2S(=O)(=O)c1ccc(C(C)=O)cc1 [Compound C0099M] | – | – | – | – | – | – | 46.9% | 53.3% | 56% | 93.8% | 157.2% | 114.7% | 241.5% | 88.0% | 195.7% | – |
| CC(=O)c1ccc(S(=O)(=O)N2CCOC23CCN(CC(=O)O)CC3)cc1 [Compound C0100M] | – | – | – | – | – | – | 52.2% | 58.2% | 64.5% | 103.6% | 173.6% | 195.6% | 411.8% | 110.6% | 245.9% | – |
| COc1ccc(S(=O)(=O)N2CCOC23CCN(S(=O)(=O)c2ccc(C(C)=O)cc2)CC3)cc1 [Compound C0047] | – | – | – | – | – | – | – | – | – | – | – | – | – | – | – | % DAMGO (0.1 μM) (mu opiate receptor (MOR); [8]): 98.1%; Concentration of FLNA-Binding Compound as Agonist 0.1 μM (mu opiate receptor (MOR); [9]): 142.2%; Concentration of FLNA-Binding Compound as Agonist 1 μM + BFNA (mu opiate receptor (MOR); [10]): 80.1%; % DAMGO + BFNA (mu opiate receptor (MOR); [11]): 182.0%; % DAMGO (1 μM) (mu opiate receptor (MOR); [12]): 88.5%; Concentration of FLNA-Binding Compound as Agonist 1 μM (mu opiate receptor (MOR); [13]): 206.1%; inhibition at 0.01 µM [1, 5]: 30.8%; inhibition at 0.1 µM [1, 6]: 35.2%; inhibition at 1 µM [1, 7]: 41.4% |
